The record followed here is ChEMBL document CHEMBL1139120, “Discovery of novel phosphorus-containing steroids as selective glucocorticoid receptor antagonist” (Bioorg Med Chem Lett, 2007).

The target in one data set is T1, Glucocorticoid receptor (Homo sapiens, UniProt P04150).
T1 sequence (P04150 whole entry): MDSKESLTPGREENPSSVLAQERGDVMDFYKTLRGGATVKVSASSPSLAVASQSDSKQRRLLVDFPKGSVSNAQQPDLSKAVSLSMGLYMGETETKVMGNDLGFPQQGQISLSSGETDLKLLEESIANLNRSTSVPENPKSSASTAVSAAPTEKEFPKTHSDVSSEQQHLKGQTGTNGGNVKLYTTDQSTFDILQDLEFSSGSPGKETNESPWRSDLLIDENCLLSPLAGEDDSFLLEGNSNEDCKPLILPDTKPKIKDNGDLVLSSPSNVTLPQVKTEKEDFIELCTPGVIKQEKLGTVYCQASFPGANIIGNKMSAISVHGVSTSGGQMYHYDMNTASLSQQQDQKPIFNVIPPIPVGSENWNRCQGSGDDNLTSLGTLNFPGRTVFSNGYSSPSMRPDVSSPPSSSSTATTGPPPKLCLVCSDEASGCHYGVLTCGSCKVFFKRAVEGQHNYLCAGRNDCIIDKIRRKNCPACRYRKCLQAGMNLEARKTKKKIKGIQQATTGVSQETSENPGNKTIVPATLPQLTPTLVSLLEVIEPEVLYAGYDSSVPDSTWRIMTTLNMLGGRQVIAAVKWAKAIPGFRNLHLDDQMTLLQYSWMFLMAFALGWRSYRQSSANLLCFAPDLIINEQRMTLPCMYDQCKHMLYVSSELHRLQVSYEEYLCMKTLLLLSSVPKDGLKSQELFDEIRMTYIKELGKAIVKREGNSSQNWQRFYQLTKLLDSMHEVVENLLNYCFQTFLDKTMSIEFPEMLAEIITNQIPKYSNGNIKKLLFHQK
The experiment in a line: Antagonist activity at glucocorticoid receptor expressed in human A549 cells assessed as inhibition of corticoid-induced transcription by glucocorticoid response element-linked luciferase reporter gene assay. The class given is functional, cell-based. On the technique in general: A reporter such as luciferase makes a cellular process visible.

The target in another data set is T2, Progesterone receptor (Homo sapiens, UniProt P06401).
T2 sequence (P06401 whole entry): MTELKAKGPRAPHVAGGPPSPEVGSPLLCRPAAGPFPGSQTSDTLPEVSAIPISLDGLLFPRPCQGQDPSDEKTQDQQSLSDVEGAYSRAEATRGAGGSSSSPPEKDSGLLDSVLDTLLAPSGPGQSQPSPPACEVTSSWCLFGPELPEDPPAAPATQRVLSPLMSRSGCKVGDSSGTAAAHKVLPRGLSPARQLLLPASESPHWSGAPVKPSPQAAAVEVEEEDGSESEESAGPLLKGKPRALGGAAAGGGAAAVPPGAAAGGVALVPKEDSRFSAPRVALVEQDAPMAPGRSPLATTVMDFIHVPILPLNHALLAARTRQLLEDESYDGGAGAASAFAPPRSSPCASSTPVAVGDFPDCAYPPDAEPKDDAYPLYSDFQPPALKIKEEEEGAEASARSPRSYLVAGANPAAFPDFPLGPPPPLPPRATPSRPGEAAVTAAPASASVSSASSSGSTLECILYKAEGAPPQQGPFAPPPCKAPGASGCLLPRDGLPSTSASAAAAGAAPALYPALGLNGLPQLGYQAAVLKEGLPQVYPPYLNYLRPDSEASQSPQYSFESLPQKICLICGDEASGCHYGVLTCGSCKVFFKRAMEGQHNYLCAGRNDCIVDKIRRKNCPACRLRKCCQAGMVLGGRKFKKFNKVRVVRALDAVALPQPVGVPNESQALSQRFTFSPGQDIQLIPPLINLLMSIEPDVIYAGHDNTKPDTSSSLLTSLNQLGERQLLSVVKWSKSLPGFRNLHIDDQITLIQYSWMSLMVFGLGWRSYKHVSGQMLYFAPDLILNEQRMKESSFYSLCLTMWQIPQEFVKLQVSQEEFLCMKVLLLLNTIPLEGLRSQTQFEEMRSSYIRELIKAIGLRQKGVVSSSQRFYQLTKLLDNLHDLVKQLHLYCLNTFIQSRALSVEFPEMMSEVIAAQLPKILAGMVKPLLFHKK
Briefly: Antagonist activity at progesterone receptor expressed in human T47 cells assessed as blockade of progesterone-induced alkaline phosphatase activity. It is filed as functional, cell-based.

A short description of data set [1]: Permeability across Caco-2 cells. The class given is ADME, cell-based. The settings on record: human, read-out: permeability. (Passage across Caco-2 layers is used to estimate intestinal permeability.)
For the next data set, the system named is A549. Briefly: Selectivity index, Ratio of IC50 for progesterone receptor expressed in human T47 cells to IC50 for glucocorticoid receptor expressed in human A549 cells.
The nature of data set [2]: Metabolic stability in human microsomes assessed as half life. It is filed as ADME, Microsome.
Data set [3] is described as follows: Metabolic stability in rat microsomes assessed as half life. The class given is ADME, Microsome.
Data set [4] is described as follows: Metabolic stability in mouse microsomes assessed as half life. It is filed as ADME, Microsome.
Data set [5] is described as follows: Metabolic stability in dog microsomes assessed as half life. It is filed as ADME, Canis lupus familiaris, Microsome.
A short description of data set [6]: Metabolic stability in monkey microsomes assessed as half life. It is filed as ADME, Macaca mulatta, Microsome. The settings on record: rhesus monkey.
Data set [7] is described as follows: Metabolic stability in rabbit microsomes assessed as half life. The class given is ADME, Oryctolagus cuniculus, Microsome.
Data set [8] can be described thus: Cmax in mouse at 2 mg/kg, iv. The class given is ADME, organism-based. The arrangement: dose 2 mg/kg, route intravenous. The settings on record: in vivo.
A short description of data set [9]: Cmax in mouse at 10 mg/kg, po. The class given is ADME, organism-based. The settings on record: in vivo. Also noted: dose 10 mg/kg, route oral.
Data set [10] is described as follows: Clearance in mouse at 2 mg/kg, iv. It is filed as ADME, organism-based. The arrangement: dose 2 mg/kg, route intravenous. The settings on record: in vivo.
Data set [11] is described as follows: Tmax in mouse at 2 mg/kg, iv. The class given is ADME, organism-based. The arrangement: dose 2 mg/kg, route intravenous. The settings on record: in vivo.
Data set [12] in a line: Tmax in mouse at 10 mg/kg, po. It is filed as ADME, organism-based. Also noted: dose 10 mg/kg, route oral. The settings on record: in vivo.
A short description of data set [13]: Half life in mouse at 2 mg/kg, iv. It is filed as ADME, organism-based. The arrangement: dose 2 mg/kg, route intravenous. The settings on record: in vivo.
The nature of data set [14]: Half life in mouse at 10 mg/kg, po. The class given is ADME, organism-based. The settings on record: in vivo. Also noted: dose 10 mg/kg, route oral.
The nature of data set [15]: Oral bioavailability in mouse at 10 mg/kg. The class given is ADME, organism-based. The settings on record: in vivo.
The target in the next data set is hERG (KCNH2) (Homo sapiens, UniProt Q12809). The experiment in a line: Inhibition of hERG at 10 uM. The class given is toxicity.
Chain of hERG (KCNH2) (Q12809 whole entry): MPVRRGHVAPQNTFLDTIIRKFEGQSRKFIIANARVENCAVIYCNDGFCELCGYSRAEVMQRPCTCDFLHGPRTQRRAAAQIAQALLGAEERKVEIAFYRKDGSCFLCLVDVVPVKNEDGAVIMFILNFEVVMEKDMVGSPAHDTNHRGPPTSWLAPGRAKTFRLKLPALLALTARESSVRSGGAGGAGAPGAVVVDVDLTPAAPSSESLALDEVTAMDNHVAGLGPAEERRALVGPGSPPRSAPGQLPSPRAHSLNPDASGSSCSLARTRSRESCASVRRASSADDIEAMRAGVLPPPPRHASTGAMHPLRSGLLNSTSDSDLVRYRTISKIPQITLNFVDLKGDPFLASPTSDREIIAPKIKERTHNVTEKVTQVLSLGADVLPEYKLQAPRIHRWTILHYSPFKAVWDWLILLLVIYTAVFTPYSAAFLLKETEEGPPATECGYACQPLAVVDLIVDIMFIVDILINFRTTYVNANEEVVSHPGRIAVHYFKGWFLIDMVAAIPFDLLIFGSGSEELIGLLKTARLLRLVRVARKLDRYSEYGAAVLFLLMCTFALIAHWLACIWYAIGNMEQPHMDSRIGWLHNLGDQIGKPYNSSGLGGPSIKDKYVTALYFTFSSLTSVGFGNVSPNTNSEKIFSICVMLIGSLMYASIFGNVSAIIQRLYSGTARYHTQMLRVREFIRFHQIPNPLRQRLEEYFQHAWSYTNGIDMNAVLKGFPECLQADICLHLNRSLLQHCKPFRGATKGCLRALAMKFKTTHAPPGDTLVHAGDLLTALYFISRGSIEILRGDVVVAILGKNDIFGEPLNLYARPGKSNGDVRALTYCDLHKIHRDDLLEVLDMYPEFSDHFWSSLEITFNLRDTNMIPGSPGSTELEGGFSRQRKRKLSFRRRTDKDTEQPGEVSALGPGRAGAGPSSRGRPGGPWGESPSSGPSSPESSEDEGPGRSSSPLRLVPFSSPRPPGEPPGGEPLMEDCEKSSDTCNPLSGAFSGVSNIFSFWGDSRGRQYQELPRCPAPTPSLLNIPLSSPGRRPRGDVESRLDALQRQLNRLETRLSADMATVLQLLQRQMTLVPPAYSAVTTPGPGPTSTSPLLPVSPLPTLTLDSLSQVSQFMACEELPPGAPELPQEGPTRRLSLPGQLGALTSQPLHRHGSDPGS
The subject of another data set is Mus musculus. Briefly: Decrease in plasma glucose level in po dosed ob/ob mouse after 15 days by OGTT. The class given is functional, organism-based.

SMILES strings stand for the structures. Calls of active or inactive are those of the source. A value given as a limit tells only on which side of the number the result lay.

For orientation: Ki means a measure of affinity in units of concentration, obtained from inhibition or displacement. Usually IC50 stands for the concentration that inhibits the measured activity by half. For orientation: half-life means the time needed for the level to fall by half in the phase considered. Broadly, the Cmax is the peak of the concentration-time curve. Broadly, the clearance is the volume of plasma or blood freed of the substance per unit of time. As usually defined, the Tmax is the time from dosing to the highest level. By bioavailability is commonly meant dose-corrected exposure relative to a reference, in per cent. Broadly, the inhibition is the share of the control response that was lost under treatment.

Take `C=C1CCO[C@]12CC[C@H]1[C@@H]3CCC4=CC(=O)CCC4=C3[C@@H](c3ccc(P(=O)(O)OCC)cc3)C[C@@]12C`: the Ki on Glucocorticoid receptor is > 3000 nM. On Progesterone receptor, the IC50 was > 1000 nM.

For `C=CC[C@]1(O)CC[C@H]2[C@@H]3CCC4=CC(=O)CCC4=C3[C@@H](c3ccc(P(=O)(OCC)OCC)cc3)C[C@@]21C`, on Glucocorticoid receptor, the Ki amounted to 10 nM. At Progesterone receptor, the IC50 was determined as 308 nM. The Papp in data set [1] was 14.5 ×10⁻⁶ cm/s. In addition, the Ratio in the data set with A549 amounted to 30.8.

Take `C=CC[C@]1(O)CC[C@H]2[C@@H]3CCC4=CC(=O)CCC4=C3[C@@H](c3ccc(P(=O)(c4ccccc4)c4ccccc4)cc3)C[C@@]21C`: the inhibition constant (Ki) at Glucocorticoid receptor was 10 nM. The half-maximal inhibitory concentration (IC50) on Progesterone receptor is 763 nM. The half-life is > 30 min in data set [2]; > 30 min in [3]; 28 min in [4]; 21 min in data set [5]; 8 min in data set [6]; 30 min in data set [7]. Besides, the half-life is 46.2 min in data set [13] and 132 min in data set [14]. Moreover, the highest concentration (Cmax) in [8] worked out at 5290 ng/mL; in data set [9], 1850 ng/mL. This compound also yielded a clearance in data set [10] of 7.98 mL/min/kg. Besides, the Tmax came to 4.8 min in data set [11] and 120 min in data set [12]. The same compound gave a bioavailability in data set [15] of 59%. The Papp in data set [1] is 2.6 ×10⁻⁶ cm/s. At hERG (KCNH2), the inhibition at 10 µM was determined as 27.8%. The outcome with Mus musculus was Active. Further, the Ratio with A549 came out at 76.3.

With `C=C1CCO[C@]12CC[C@H]1[C@@H]3CCC4=CC(=O)CCC4=C3[C@@H](c3ccc(P(C)(=O)OCC)cc3)C[C@@]12C` (stereo not given in full), the Ki at Glucocorticoid receptor was 59.8 nM. The concentration for half-maximal inhibition (IC50) at Progesterone receptor was determined as 1.6 nM. In addition, the Ratio with A549 came to 0.027.

In the case of `C[C@]12C[C@H](c3ccc(P(=O)(c4ccccc4)c4ccccc4)cc3)C3=C4CCC(=O)C=C4CC[C@H]3[C@@H]1CC[C@@]2(O)c1ccccc1`, the Ki at Glucocorticoid receptor was 20 nM. In addition, the IC50 at Progesterone receptor was 275 nM. Moreover, the Ratio with A549 was found to be 13.8.

With `CC#C[C@]1(O)CC[C@H]2[C@@H]3CCC4=CC(=O)CCC4=C3[C@@H](c3ccc(P(=O)(c4ccccc4)c4ccccc4)cc3)C[C@@]21C`, on Glucocorticoid receptor, the Ki was 3 nM. Besides, the half-maximal inhibitory concentration (IC50) at Progesterone receptor was found to be 381 nM. Also, the Ratio in the data set with A549 stood at 127.

With `CC#C[C@]1(O)CC[C@H]2[C@@H]3CCC4=CC(=O)CCC4=C3[C@@H](c3ccc(P(=O)(OCC)OCC)cc3)C[C@@]21C`, the Ki on Glucocorticoid receptor stood at 9 nM. Besides, the 50% inhibitory concentration (IC50) at Progesterone receptor amounted to 141 nM. The Ratio in the data set with A549 was found to be 15.7.

Turning to `CC#C[C@]1(O)CC[C@H]2[C@@H]3CCC4=CC(=O)CCC4=C3[C@@H](c3ccc(N(C)C)cc3)C[C@@]21C` [MIFEPRISTONE], the Cmax in [8] amounted to 2800 ng/mL; in data set [9], 30 ng/mL. This compound returned a clearance in data set [10] of 115 mL/min/kg. Besides, the time to peak (Tmax) in data set [11] is 4.8 min; in data set [12], 60 min. Further, the half-life in data set [13] was 240 min; in data set [14] it was 168 min. This compound also yielded a bioavailability in data set [15] of 31%. In addition, in the data set with Mus musculus, the result was Active.

`C=C1CCO[C@]12CC[C@H]1[C@@H]3CCC4=CC(=O)CCC4=C3[C@@H](c3ccc(P(C)(=O)O)cc3)C[C@@]12C`: the inhibition constant (Ki) on Glucocorticoid receptor was > 3000 nM. Moreover, the half-inhibitory concentration (IC50) on Progesterone receptor is > 1000 nM.

With `C=C1CCO[C@]12CC[C@H]1[C@@H]3CCC4=CC(=O)CCC4=C3[C@@H](c3ccc(P(=O)(OCC)OCC)cc3)C[C@@]12C`, the Ki at Glucocorticoid receptor was determined as 56.3 nM. The IC50 on Progesterone receptor turned out to be 9.9 nM. Further, in the data set on A549, the Ratio turned out to be 0.17.

Consider `CC#C[C@]1(O)CC[C@H]2[C@@H]3CCC4=CC(=O)CCC4=C3[C@@H](c3ccc(P(C)(C)=O)cc3)C[C@@]21C`, for which the concentration for half-maximal inhibition (IC50) at Glucocorticoid receptor was found to be 10 nM; at Progesterone receptor, 101 nM. The Ratio in the data set on A549 stood at 10.1.
